Measured values as given in patent US7271165B2, “Rifamycin analogs and uses thereof” (priority 2003, dated 2007).
In brackets after ≈: the same amount, converted by molar mass. Where two headings read alike, the source gives them in different places.

Experiments:
[1] = system: S. aureus; assay: MIC assay, S. aureus; type: cell-based, Staphylococcus aureus
[2] = system: S. pneumo.; assay: MIC assay, S. pneumo.; type: cell-based, Streptococcus pneumoniae
[3] = system: E. faecalis; assay: MIC assay, E. faecalis; type: cell-based, Enterococcus faecalis
[4] = system: H. flu; type: cell-based, H. influenza
[5] = system: E coli; assay: MIC assay, E coli; type: cell-based

SMILES	MIC (μg/mL) S. aureus [1]	MIC (μg/mL) S. pneumo. [2]	MIC (μg/mL) E. faecalis [3]	MIC (μg/mL) H. flu [4]	MIC (μg/mL) E coli [5]	MIC (μg/mL) H. flu ([4]; H. flu)
C=CCc1cc(C)cc2nc3c4c5c6c(C)c(O)c4c(=O)c(c-3oc12)NC(=O)C(C)=CC=CC(C)C(O)C(C)C(O)C(C)C(O)C(C)C(OC)C=COC(C)(O6)C5=O (stereo not drawn) [Compound 132]	0.06 µg/mL (≈ 75.3 nM)	0.03 µg/mL (≈ 37.6 nM)	2 µg/mL (≈ 2510 nM)	0.5 µg/mL (≈ 627 nM)	>8 µg/mL	
COC1C=COC2(C)Oc3c(C)c(O)c4c(=O)c(c5sc6cc(N7CC(C)N(CC8CC8)CC7C)ccc6nc-5c4c3C2=O)NC(=O)C(C)=CC=CC(C)C(O)C(C)C(O)C(C)C(OC(C)=O)C1C [Compound 68, 5′-[(2S,5R)-4-(cyclopropylmethyl)-2,5-dimethylpiperazinyl]benzthiazinorifamycin]	0.06 µg/mL (≈ 62 nM)	0.0005 µg/mL (≈ 0.517 nM)	2 µg/mL (≈ 2070 nM)		>8 µg/mL	0.5 µg/mL (≈ 517 nM)
CO[C@H]1/C=C/O[C@@]2(C)Oc3c(C)c(O)c4c(=O)c(c5oc6cc(N7CCC(N)CC7)cc(O)c6nc-5c4c3C2=O)NC(=O)/C(C)=C\C=C\[C@H](C)[C@H](O)[C@@H](C)[C@@H](O)[C@@H](C)[C@H](OC(C)=O)[C@@H]1C [Compound 33, 3′-hydroxy-5′-[4-amino-1-piperidinyl]benzoxazinorifamycin]	0.008 µg/mL (≈ 8.9 nM)	0.00006 µg/mL (≈ 0.0667 nM)	1 µg/mL (≈ 1110 nM)		>8 µg/mL	1 µg/mL (≈ 1110 nM)
COC1C=COC2(C)Oc3c(C)c(O)c4c(=O)c(c5oc6cc(N7CC8CCCN(C(C)=O)C8C7)cc(O)c6nc-5c4c3C2=O)NC(=O)C(C)=CC=CC(C)C(O)C(C)C(O)C(C)C(OC(C)=O)C1C [Compound 47, 3′-hydroxy-5′-[1-acetyl-(4aR,7aR)-octahydro-6H-pyrrolo[3,4-b]pyridin-6-yl]benzoxazinorifamycin]	0.008 µg/mL (≈ 8.27 nM)	0.002 µg/mL (≈ 2.07 nM)	1 µg/mL (≈ 1030 nM)		>8 µg/mL	0.25 µg/mL (≈ 259 nM)
CCOC(=O)NC1CCN(c2ccc3nc4c5c6c7c(C)c(O)c5c(=O)c(c-4n(C)c3c2)NC(=O)/C(C)=C\C=C\[C@H](C)[C@H](O)[C@@H](C)[C@@H](O)[C@@H](C)[C@H](OC(C)=O)[C@H](C)[C@@H](OC)/C=C/O[C@@](C)(O7)C6=O)CC1 [Compound 19]	0.004 µg/mL (≈ 4.13 nM)	0.001 µg/mL (≈ 1.03 nM)	0.06 µg/mL (≈ 62 nM)		4 µg/mL (≈ 4130 nM)	0.25 µg/mL (≈ 258 nM)
COC1C=COC2(C)Oc3c(C)c(O)c4c(=O)c(c5oc6cc(N7CC8CCCN(C)C8C7)cc(O)c6nc-5c4c3C2=O)NC(=O)C(C)=CC=CC(C)C(O)C(C)C(O)C(C)C(OC(C)=O)C1C [Compound 58, 3′-hydroxy-5′-[1-methyl-(4aS,7aS)-octahydro-6H-pyrrolo[3,4-b]pyridin-6-yl]benzoxazinorifamycin]	0.03 µg/mL (≈ 31.9 nM)	0.004 µg/mL (≈ 4.26 nM)	1 µg/mL (≈ 1060 nM)		>8 µg/mL	0.25 µg/mL (≈ 266 nM)
CO[C@H]1/C=C/O[C@@]2(C)Oc3c(C)c(O)c4c(=O)c(c5oc6cc(N7CC8CCC(C7)N8)cc(O)c6nc-5c4c3C2=O)NC(=O)/C(C)=C\C=C\[C@H](C)[C@H](O)[C@@H](C)[C@@H](O)[C@@H](C)[C@H](O)[C@@H]1C [Compound 16, 25-O-deacetyl-3′-hydroxy-5′-(3,8-diazabicyclo[3.2.1]octan-3-yl)benzoxazinorifamycin]	0.015 µg/mL (≈ 17.3 nM)	0.001 µg/mL (≈ 1.15 nM)	0.12 µg/mL (≈ 138 nM)		4 µg/mL (≈ 4600 nM)	0.25 µg/mL (≈ 288 nM)
CO[C@H]1/C=C/O[C@@]2(C)Oc3c(C)c(O)c4c(=O)c(c5oc6cc(N7CCC(N8CCOCC8)CC7)cc(O)c6nc-5c4c3C2=O)NC(=O)/C(C)=C\C=C\[C@H](C)[C@H](O)[C@@H](C)[C@@H](O)[C@@H](C)[C@H](O)[C@@H]1C [Compound 11, 25-O-deacetyl-3′-hydroxy-5′-(4-morpholinyl-1-piperidinyl)benzoxazinorifamycin]	0.004 µg/mL (≈ 4.31 nM)	0.00012 µg/mL (≈ 0.129 nM)	0.25 µg/mL (≈ 270 nM)		4 µg/mL (≈ 4310 nM)	1 µg/mL (≈ 1080 nM)
COC1C=COC2(C)Oc3c(C)c(O)c4c(=O)c(c5oc6cc(N7CCCN(C)CC7)cc(O)c6nc-5c4c3C2=O)NC(=O)C(C)=CC=CC(C)C(O)C(C)C(O)C(C)C(O)C1C (stereo not drawn) [Compound 121]	0.004 µg/mL (≈ 4.59 nM)	0.00012 µg/mL (≈ 0.138 nM)	0.03 µg/mL (≈ 34.4 nM)		4 µg/mL (≈ 4590 nM)	0.25 µg/mL (≈ 287 nM)
COC1C=COC2(C)Oc3c(C)c(O)c4c(=O)c(c5oc6cc(N7CCC(NC(=O)OC(C)(C)C)CC7)cc(O)c6nc-5c4c3C2=O)NC(=O)C(C)=CC=CC(C)C(O)C(C)C(O)C(C)C(OC(C)=O)C1C (stereo not drawn) [Compound 48]	0.008 µg/mL (≈ 8.01 nM)	0.00025 µg/mL (≈ 0.25 nM)	2 µg/mL (≈ 2000 nM)		>8 µg/mL	1 µg/mL (≈ 1000 nM)
COC1C=COC2(C)Oc3c(C)c(O)c4c(=O)c(c5oc6cc(N7CCN(CCN(C)C)CC7)cc(O)c6nc-5c4c3C2=O)NC(=O)C(C)=CC=CC(C)C(O)C(C)C(O)C(C)C(O)C1C (stereo not drawn) [Compound 100]	0.03 µg/mL (≈ 32.8 nM)	0.008 µg/mL (≈ 8.75 nM)	0.5 µg/mL (≈ 547 nM)		>8 µg/mL	0.12 µg/mL (≈ 131 nM)
COC1C=COC2(C)Oc3c(C)c(O)c4c(=O)c(c5oc6cc(N7CC(C)NCC7C)cc(O)c6nc-5c4c3C2=O)NC(=O)C(C)=CC=CC(C)C(O)C(C)C(O)C(C)C(O)C1C (stereo not drawn) [Compound 97]	0.004 µg/mL (≈ 4.59 nM)	0.0005 µg/mL (≈ 0.574 nM)	0.12 µg/mL (≈ 138 nM)		4 µg/mL (≈ 4590 nM)	0.25 µg/mL (≈ 287 nM)
COCCOC(=O)NC1CCN(c2cc(O)c3nc4c5c6c7c(C)c(O)c5c(=O)c(c-4oc3c2)NC(=O)C(C)=CC=CC(C)C(O)C(C)C(O)C(C)C(OC(C)=O)C(C)C(OC)C=COC(C)(O7)C6=O)CC1 (stereo not drawn) [Compound 41, 3′-hydroxy-5′-[4-methoxyethylcarbamyl-1-piperidinyl]benzoxazinorifamycin]	0.25 µg/mL (≈ 250 nM)	0.0005 µg/mL (≈ 0.499 nM)	>8 µg/mL		>8 µg/mL	2 µg/mL (≈ 2000 nM)
CO[C@H]1/C=C/O[C@@]2(C)Oc3c(C)c(O)c4c(=O)c(c5oc6c(F)c(N7CCN(CC(C)C)CC7)ccc6nc-5c4c3C2=O)NC(=O)/C(C)=C\C=C\[C@H](C)[C@H](O)[C@@H](C)[C@@H](O)[C@@H](C)[C@H](O)[C@@H]1C [Compound 106]	0.03 µg/mL (≈ 33.3 nM)	0.008 µg/mL (≈ 8.88 nM)	0.5 µg/mL (≈ 555 nM)		8 µg/mL (≈ 8880 nM)	0.5 µg/mL (≈ 555 nM)
COC1C=COC2(C)Oc3c(C)c(O)c4c(=O)c(c5sc6cc(N7CC(C)N(CC8CC8)CC7C)ccc6nc-5c4c3C2=O)NC(=O)C(C)=CC=CC(C)C(O)C(C)C(O)C(C)C(O)C1C [Compound 70, 25-O-deacetyl-5′-[(2S,5R)-4-(cyclopropylmethyl)-2,5-dimethylpiperazinyl]benzthiazinorifamycin]	0.03 µg/mL (≈ 32.4 nM)	0.001 µg/mL (≈ 1.08 nM)	1 µg/mL (≈ 1080 nM)		>8 µg/mL	1 µg/mL (≈ 1080 nM)
COC1C=COC2(C)Oc3c(C)c(O)c4c(=O)c(c5oc6cc(N7CCNCC7)cc(O)c6nc-5c4c3C2=O)NC(=O)C(C)=CC=CC(C)C(O)C(C)C(O)C(C)C(O)C1C (stereo not drawn) [Compound 104]	0.008 µg/mL (≈ 9.49 nM)	0.002 µg/mL (≈ 2.37 nM)	0.06 µg/mL (≈ 71.2 nM)	0.12 µg/mL (≈ 142 nM)	4 µg/mL (≈ 4750 nM)	
CCc1cc(C)cc2nc3c4c5c6c(C)c(O)c4c(=O)c(c-3oc12)NC(=O)C(C)=CC=CC(C)C(O)C(C)C(O)C(C)C(O)C(C)C(OC)C=COC(C)(O6)C5=O (stereo not drawn) [Compound 130]		0.25 µg/mL (≈ 319 nM)	1 µg/mL (≈ 1270 nM)		>8 µg/mL	
COC1C=COC2(C)Oc3c(C)c(O)c4c(=O)c(c5oc6cc(N7CC(C)CC(C)C7)cc(O)c6nc-5c4c3C2=O)NC(=O)C(C)=CC=CC(C)C(O)C(C)C(O)C(C)C(O)C1C (stereo not drawn) [Compound 113]	0.008 µg/mL (≈ 9.2 nM)	0.002 µg/mL (≈ 2.3 nM)	1 µg/mL (≈ 1150 nM)			0.12 µg/mL (≈ 138 nM)
